Reference: publication PMC6099588
pIC50: −log10 of the molar value.

Legend:
in vitro = details: human, CC50, Huh-7.5 cells, MTS assay, 72 h
[1] = test system: HCVcc (Jc1/JFH genotype 2a); format: cell-based, hepatitis C virus
HCVpp [2] = details: 50 μM, added to HEK-293T producer cells; luciferase in infected Huh-7.5 cells
HCVcc = HCVcc dose-response SEAP reporter assay in Huh7-J20 cells; details: for pIC50: Hepatitis C virus, Huh7-J20, 72 h; for selectivity index (SI), CC50/IC50 ratio: Huh7-J20 cells, HCVcc
[3] = MTS cytotoxicity alongside the Huh7-J20 SEAP assay; details: human, Huh7-J20 cells
influenza A virus = details: cited from earlier work; for antiviral activity against influenza A virus: among compounds 1–9
[4] = test system: HCV replication (Huh7-J17 replicon cell line); experiment: HCV replicon luciferase assay in Huh7-J17 cells; details: 72 h; for effect on HCV replication process (luciferase activity): Huh7-J17 replicon cells, different doses
HCV E2 glycoprotein = experiment: Western blot of E2 glycoprotein accumulation in transfected HEK293T cells; details: anti-E2 MAb AP33, 48 h post transfection
[5] = test system: classical swine fever virus; details: cited from earlier work
HCVpp [6] = experiment: microbe, parasite or virus in culture; details: Hepatitis C virus, read-out: inhibition of infection (HCVpp)

Question: Which CC50 (in vitro) does the source give for `CC(=O)OC[C@H]1O[C@H](OC[C@H]2O[C@@H](n3ccc(=O)[nH]c3=O)[C@@H]3OC(C)(C)O[C@@H]32)C[C@@H](OC(C)=O)[C@@H]1OC(C)=O` [Compound 6] here?
Answer: The CC50 was 210 µM.

Question: And the “anti-HCV activity (reduction of pseudoplaques)” value [1]?
Answer: The value was “no obvious anti-HCV activity”.

Question: With `CC1(C)O[C@@H]2[C@H](O1)[C@@H](CO[C@@H]1C[C@@H](OCc3ccccc3)[C@H](OCc3ccccc3)[C@@H](COCc3ccccc3)O1)O[C@H]2n1ccc(=O)n(C(=O)c2ccccc2)c1=O` [Compound 4] as the molecule, how does the “reduction of HCVpp production and/or infectivity relative to DMSO control” value (HCVpp [2]) read?
Answer: The value was “about 80%”.

Question: And the pIC50 (HCVcc)?
Answer: The pIC50 was 5.68.

Question: What about the “selectivity index (SI), CC50/IC50 ratio” value (HCVcc) of the same molecule?
Answer: The value was 67.6.

Question: And the CC50 [3]?
Answer: The CC50 was 142 µM.

Question: And the “antiviral activity against influenza A virus” value (influenza A virus)?
Answer: Its value is “most active”.

Question: And the CC50 (in vitro)?
Answer: Its CC50 is 151 µM.

Question: What about the “effect on HCV replication process (luciferase activity)” value [4] of the same molecule?
Answer: The value was “no effect on HCV replication process”.

Question: What about the “anti-HCV activity (reduction of pseudoplaques)” value [1] of the same molecule?
Answer: Its value is “high antiviral activity”.

Question: What about the “accumulation of E2 glycoprotein in HEK293T cells” value (HCV E2 glycoprotein) of the same molecule?
Answer: Its value is “no change in the accumulation”.

Question: What does the source list for `CC1(C)O[C@@H]2[C@H](O1)[C@@H](CO[C@@H]1C[C@@H](OCc3ccccc3)[C@H](OCc3ccccc3)[C@@H](CO)O1)O[C@H]2n1ccc(=O)n(C(=O)c2ccccc2)c1=O` [IW7]?
Answer: ability to inhibit influenza A virus (influenza A virus): most active; ability to inhibit classical swine fever virus [5]: most active

Question: With `CC(=O)O[C@H]1[C@H](C)O[C@H](OC[C@H]2O[C@@H](n3ccc(=O)n(C(=O)c4ccccc4)c3=O)[C@@H]3OC(C)(C)O[C@@H]32)C[C@@H]1O[Si](C)(C)C(C)(C)C` [Compound 2] as the molecule, how does the “reduction of HCVpp production and/or infectivity relative to DMSO control” value (HCVpp [2]) read?
Answer: Its value is “about 80%”.

Question: And the pIC50 (HCVcc)?
Answer: The pIC50 was 5.05.

Question: And the “selectivity index (SI), CC50/IC50 ratio” value (HCVcc)?
Answer: Its value is 12.7.

Question: And the CC50 [3]?
Answer: Its CC50 is 113 µM.

Question: What about the “antiviral activity against influenza A virus” value (influenza A virus) of the same molecule?
Answer: Its value is “most active”.

Question: What about the CC50 (in vitro) of the same molecule?
Answer: Its CC50 is 119 µM.

Question: And the “effect on HCV replication process (luciferase activity)” value [4]?
Answer: The value was “no effect on HCV replication process”.

Question: What about the “anti-HCV activity (reduction of pseudoplaques)” value [1] of the same molecule?
Answer: The value was “high antiviral activity”.

Question: What about the “accumulation of E2 glycoprotein in HEK293T cells” value (HCV E2 glycoprotein) of the same molecule?
Answer: Its value is “no change in the accumulation”.

Question: What does the source list for `O=c1ccn([C@@H]2O[C@H](CO[C@@H]3C[C@@H](O)[C@H](O)[C@@H](CO)O3)[C@@H](O)[C@H]2O)c(=O)[nH]1` [Compound 9]?
Answer: CC50 (in vitro): 245 µM; anti-HCV activity (reduction of pseudoplaques) [1]: minor anti-HCV activity

Question: For `CC(=O)O[C@H]1[C@H](C)O[C@H](OC[C@H]2O[C@@H](n3ccc(=O)[nH]c3=O)[C@@H]3OC(C)(C)O[C@@H]32)C[C@@H]1O[Si](C)(C)C(C)(C)C` [Compound 1], which CC50 (in vitro) is on record?
Answer: Its CC50 is 85 µM.

Question: What about the “anti-HCV activity (reduction of pseudoplaques)” value [1] of the same molecule?
Answer: The value was “no obvious anti-HCV activity”.

Question: Which CC50 (in vitro) does the source give for `CC(=O)OC[C@H]1O[C@H](OC[C@H]2O[C@@H](n3ccc(=O)n(Cc4ccccc4)c3=O)[C@@H]3OC(C)(C)O[C@@H]32)C[C@@H](OC(C)=O)[C@@H]1OC(C)=O` [Compound 8] here?
Answer: The CC50 was 223 µM.

Question: What about the “anti-HCV activity (reduction of pseudoplaques)” value [1] of the same molecule?
Answer: The value was “minor anti-HCV activity”.

Question: With `CC1(C)O[C@@H]2[C@H](O1)[C@@H](CO[C@@H]1C[C@@H](OCc3ccccc3)[C@H](OCc3ccccc3)[C@@H](CO[Si](C)(C)C(C)(C)C)O1)O[C@H]2n1ccc(=O)[nH]c1=O` [Compound 5] as the molecule, how does the CC50 (in vitro) read?
Answer: Its CC50 is 83 µM.

Question: What about the “anti-HCV activity (reduction of pseudoplaques)” value [1] of the same molecule?
Answer: Its value is “no obvious anti-HCV activity”.

Question: Which results are given for `CC1(C)O[C@@H]2[C@H](O1)[C@@H](CO[C@@H]1C[C@@H](OCc3ccccc3)[C@H](OCc3ccccc3)[C@@H](COCc3ccccc3)O1)O[C@H]2n1ccc(=O)[nH]c1=O` [Compound 3]?
Answer: CC50 (in vitro): 89 µM; anti-HCV activity (reduction of pseudoplaques) [1]: minor anti-HCV activity

Question: For `CC(=O)N[C@H]1[C@@H](O[C@@H]2O[C@H](C[C@@H](O)[C@H]3O[C@@H](n4ccc(=O)[nH]c4=O)[C@H](O)[C@@H]3O)[C@H](O)[C@H](O)[C@H]2NC(=O)/C=C/CCCCCCCCCC(C)C)O[C@H](CO)[C@@H](O)[C@@H]1O` [Tunicamycin], which inhibition at 5 µM (HCVpp [6]) is on record?
Answer: Its inhibition at 5 µM is > 80%.

Question: Which results are given for `CC1(C)O[C@@H]2[C@H](O1)[C@@H](CO[C@@H]1C[C@@H](OCc3ccccc3)[C@H](OCc3ccccc3)[C@@H](CO[Si](C)(C)C(C)(C)C)O1)O[C@H]2n1ccc(=O)n(C(=O)c2ccccc2)c1=O` [IW3]?
Answer: ability to inhibit influenza A virus (influenza A virus): most active; ability to inhibit classical swine fever virus [5]: most active

Question: With `CC(C)OC(=O)[C@H](C)N[P@](=O)(OC[C@H]1O[C@@H](n2ccc(=O)[nH]c2=O)[C@](C)(F)[C@@H]1O)Oc1ccccc1` [Sofosbuvir, reference compound] as the molecule, how does the pIC50 (HCVcc) read?
Answer: The pIC50 was 6.59.

Question: And the “selectivity index (SI), CC50/IC50 ratio” value (HCVcc)?
Answer: Its value is “about 120”.

Question: What about the pIC50 ([4]; Hepatitis C virus) of the same molecule?
Answer: The pIC50 was 7.55.
